Assay results from US5536850A, “Substance DC114-A1” (Kyowa Hakko Kogyo Co., Ltd., priority 1993, dated 1996).
Converted amounts (≈) assume the structure as drawn. Where two headings read alike, the source gives them in different places.

How the values were obtained:
[1] = tested on: HeLaS3 cells; assay: Growth inhibition against HeLaS3 cells; format: cell-based; conditions: Homo sapiens, HeLa S3, 1 h
Procedure: HeLaS3 cells (ATCC HTB22) were suspended in a medium comprising 10% fetal calf serum, 2 mM glutamine and MEM medium (produced by Nissui Pharmaceutical Co., Ltd.) (hereinafter referred to as medium A) to a concentration of 3×10^4 cells/ml. The cell suspension was put into wells of a 96-well microtiter plate in an amount of 0.1 ml per well. The cells in the plate were cultured at 37° C. for 20 hours in a CO2 -incubator. Subsequently, the test compound appropriately diluted with medium A was added to the wells in an amount of 0.1 ml/well. The cells were further cultured at 37° C. for one hour in the CO2 -incubator, and then the culture supernatant was removed. To the residue was added a medium comprising medium A and 0.02% Neutral Red in an amount of 0.1 ml per well, followed by culturing at 37° C. for one hour in the CO2 -incubator, whereby the cells were stained. After removal of the culture supernatant, the residue was washed once with physiological saline. The pigment was extracted with 0.001 N hydrochloric acid/30% ethanol, and the absorbance at 550 nm was measured by using a microplate reader. The concentration of the test compound at which the growth of the cells is inhibited by 50% (IC50) was calculated by comparing the absorbance of untreated cells with those of the cells treated with the test compound at known concentrations.

[2] = tested on: Candida albicans ATCC 10231; assay: Antibacterial activity, MIC by agar dilution method; format: cell-based
Procedure: (§1) The antibacterial activity was determined by the agar dilution method using a medium (pH 7) which comprises 3 g/l Bacto-tryptone (produced by Difco Laboratories), 3 g/l meat extract, 1 g/l yeast extract, 1 g/l glucose and 16 g/l agar.

[3] = tested on: Klebsiella pneumoniae ATCC 10031; assay: as above; format: cell-based
Procedure: as §1

[4] = tested on: Shigella sonnei ATCC 9290; assay: as above; format: cell-based; conditions: ATCC9290, pH 7
Procedure: as §1

[5] = tested on: Escherichia coli ATCC 26; assay: as above; format: cell-based; conditions: ATCC26, pH 7
Procedure: as §1

[6] = tested on: Staphylococcus aureus ATCC 6538P; assay: as above; format: cell-based; conditions: ATCC6538P, pH 7
Procedure: as §1

[7] = tested on: Proteus vulgaris ATCC 6897; assay: as above; format: cell-based
Procedure: as §1

[8] = tested on: Bacillus subtilis No. 10707; assay: as above; format: cell-based
Procedure: as §1

[9] = tested on: Pseudomonas aeruginosa Bin H No. 1; assay: as above; format: cell-based; conditions: pH 7
Procedure: as §1

[10] = tested on: Enterococcus faecium ATCC 10541; assay: as above; format: cell-based
Procedure: as §1

[11] = tested on: Salmonella typhi ATCC 9992; assay: as above; format: cell-based; conditions: Salmonella enterica, pH 7
Procedure: as §1

[12] = Solubility; format: physicochemical

Cc1cc2c(O)c3c(cc2c2oc(C4(C)OC4C4CO4)cc(=O)c12)C(=O)C1OC1(C1CC(=O)C(O)C(C)O1)C3=O (centres unmarked) [DC114-A1]
IC50 [1]: 0.012 µM
MIC ([2]; Candida albicans, ATCC10231, pH 7): 5.21 mg/L (≈ 9.5 µM)
MIC ([3]; Klebsiella pneumoniae, ATCC10031, pH 7): 5.21 mg/L (≈ 9.5 µM)
MIC [4]: 5.21 mg/L (≈ 9.5 µM)
MIC [5]: 5.21 mg/L (≈ 9.5 µM)
MIC ([6]; Staphylococcus aureus): 0.04 mg/L (≈ 0.0729 µM)
MIC ([7]; Proteus vulgaris, ATCC6897, pH 7): 2.6 mg/L (≈ 4.74 µM)
MIC ([8]; Bacillus subtilis, NO.10707, pH 7): 0.33 mg/L (≈ 0.602 µM)
MIC ([9]; Pseudomonas aeruginosa): 5.21 mg/L (≈ 9.5 µM)
MIC ([10]; Enterococcus faecium, ATCC10541, pH 7): 0.16 mg/L (≈ 0.292 µM)
MIC [11]: 5.21 mg/L (≈ 9.5 µM)
Solubility ([12]; acetone): Soluble
Solubility ([12]; chloroform): sparingly soluble
Solubility ([12]; dimethylsulfoxide (DMSO)): Soluble
Solubility ([12]; ethyl acetate): sparingly soluble
Solubility ([12]; methanol): Soluble
Solubility ([12]; n-hexane): sparingly soluble
Solubility ([12]; water): sparingly soluble

Cc1cc2c(O)c3c(cc2c2oc(C4(C)OC4C4CO4)cc(=O)c12)C(=O)C1OC1(C1CC(=O)C(O)C(C)O1)C3O (centres unmarked) [DC114-C, reference compound]
IC50 ([1]; HeLaS3 cells, one hour with compound, 37° C., Neutral Red, absorbance at 550 nm, read-out: IC50): 0.021 µM
MIC ([2]; ATCC10231, Candida albicans ATCC 10231, agar dilution, pH 7, read-out: MIC): > 83.3 mg/L
MIC ([3]; ATCC10031, Klebsiella pneumoniae ATCC 10031, agar dilution, pH 7, read-out: MIC): 5.21 mg/L (≈ 9.46 µM)
MIC [4]: 20.8 mg/L (≈ 37.8 µM)
MIC [5]: 20.8 mg/L (≈ 37.8 µM)
MIC ([6]; Staphylococcus aureus ATCC 6538P, agar dilution, read-out: MIC): 0.16 mg/L (≈ 0.291 µM)
MIC ([7]; ATCC6897, Proteus vulgaris ATCC 6897, agar dilution, pH 7, read-out: MIC): 5.21 mg/L (≈ 9.46 µM)
MIC ([8]; Bacillus subtilis No. 10707, agar dilution, pH 7, read-out: MIC): 0.33 mg/L (≈ 0.599 µM)
MIC ([9]; Pseudomonas aeruginosa Bin H No. 1, agar dilution, read-out: MIC): 41.7 mg/L (≈ 75.7 µM)
MIC ([10]; ATCC10541, Enterococcus faecium ATCC 10541, agar dilution, pH 7, read-out: MIC): 0.16 mg/L (≈ 0.291 µM)
MIC [11]: 20.8 mg/L (≈ 37.8 µM)
